# Literature values, collected in patent US6365196B1, “Controlled release solid dosage forms of lithium carbonate” (SmithKline Beecham Corporation, priority 1997, dated 2002).
smiles,measurement,value
O=C(O)/C=C/C(=O)O [fumaric acid],solubility in water,6 mg per ml
